Assay results as given in ChEMBL document CHEMBL1208731, “A novel, broad-spectrum anticancer compound containing the imidazo[4,5-e][1,3]diazepine ring system” (Bioorg Med Chem Lett, 2010).
Active and inactive are the calls of the source. The calls are words filed in the database; no cut-off is given here.

Tests used:
Type in all cases: functional, cell-based
PC-3 = test: Cytotoxicity against human PC3 cells after 72 hrs; conditions: PC-3, 72 h
MCF7 = test: Cytotoxicity against human MCF7 cells after 72 hrs; conditions: MCF7, 72 h
A549 = test: Cytotoxicity against human A549 cells after 72 hrs; conditions: A549, 72 h
NCI-H460 = test: Cytotoxicity against human H460 cells after 72 hrs; conditions: NCI-H460, 72 h
OVCAR-3 = test: Cytotoxicity against human OVCAR-3 cells after 72 hrs

CCNc1nc(N)c2ncnc-2c(N)n1
IC50 (PC-3): > 800 µM
IC50 (MCF7): > 800 µM
IC50 (A549): 38 µM
IC50 (NCI-H460): 22 µM
Activity (OVCAR-3): Active
